Test results from patent publication US20260242759A1, “GQ/11 Protein Peptidomimetics” (Vrije Universiteit Brussel, priority 2022, published 2026).
Positions of bridges follow the written chain, without caps; N, C: chain ends. Non-standard residues stand in square brackets, D forms with d. Residues, ends and D or L forms follow the SMILES beside them. Triazole bridges read from a SMILES are 1,4-linked. Lys(N3) = [N-]=[N+]=NCCCC[C@H](N)C(=O)O; Cha = N[C@@H](CC1CCCCC1)C(=O)O; Pra = C#CC[C@H](N)C(=O)O

Assays:
[1] = Solubility in aqueous buffer; conditions: aqueous buffer for RLA
[2] = target: T1, human ghrelin receptor (GHSR) (Homo sapiens, UniProt Q92847, C146S/C304S); assay: Bimane fluorescence assay on purified ghrelin receptor in nanodiscs; type: biochemical; conditions: bimane labeled GHSR, in presence of JMV1843
T1 construct: integrin α5 fragment (N); polyhistidine tag (C); made in house; host or cells: E. coli BL21(DE3)
T1 sequence (Q92847 whole entry C146S/C304S, the tested form may be a part): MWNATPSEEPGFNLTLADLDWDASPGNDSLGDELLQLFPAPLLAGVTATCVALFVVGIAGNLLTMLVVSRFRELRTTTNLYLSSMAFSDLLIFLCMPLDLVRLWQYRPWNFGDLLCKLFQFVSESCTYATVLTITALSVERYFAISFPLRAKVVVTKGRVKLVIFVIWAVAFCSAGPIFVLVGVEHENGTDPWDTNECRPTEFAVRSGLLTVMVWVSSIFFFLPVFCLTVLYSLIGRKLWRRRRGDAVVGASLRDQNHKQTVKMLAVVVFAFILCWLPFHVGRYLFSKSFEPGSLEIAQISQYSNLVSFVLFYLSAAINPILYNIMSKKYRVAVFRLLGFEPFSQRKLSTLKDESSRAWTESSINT
Excerpt: Another assay that can be used to analyse conformational changes associated with GPCR activation and/or to identify G protein peptidomimetics that are capable of stabilizing a GPCR in an active conformational state is the bimane fluorescence assay or bimane assay. This assay works through labelling of a cysteine residue in the lower part of the TM6 of a GPCR with a bimane-fluorophore (monobromobimane (MB)). Binding of an agonist to the GPCR causes a conformational change and outward movement of TM6 that places bimane in a more solved-exposed position, which will alter its maximum emission wavelength. In particular, increasing concentrations of agonist result in a concentration-dependent red-shift of the maximum emission wavelength (λmax) of the bimane-fluorophore probe. In the presence of a G protein or an active state stabilizing G protein peptidomimetic λmax may increase further. For example, a bimane labelled ghrelin receptor (such as a cysmin mutant (i.e. mutant with minimal cysteines) of human ghrelin receptor (also referred to herein as growth hormone secretagogue receptor (GHSR) (e.g. the mutant as described in Damian et al. (2021) wherein monobromobimane (MB) fluorescent probe is attached to Cys^255) and ghrelin receptor agonist JMV1843 may be used.
The bimane fluorescence assays on the ghrelin receptor were performed as described in Damian et al. (2021. Nat. Commun. 12:1-15). Briefly, E. coli bacteria (BL21(DE3)) were transformed with a vector encoding the human ghrelin receptor with an integrin α5 fragment at the N-terminus and a polyhistidine tag at the C-terminus. The receptors were then purified and reconstituted into lipidated nanodiscs. The monobromobimane labeling was performed by incubating the receptors, with a unique reactive cysteine at position 255, during 16 h in the dark at 4° C. and in the presence of 0.1 mM tris(2-carboxyethyl)phosphine (TCEO). The reaction was terminated with 5 mM L-cysteine and unreacted monobromobimane was removed using a Zeba™ Spin desalting column.
For the fluorescence assay, the labeled receptor was incubated during 2 h at 20° C. (0.2 μM final concentration), in the absence or presence of the full agonist JMV1843 (20 μM) and in the absence or presence of either the peptidomimetics at varying molar ratios or the purified Gαqβ1γ2 heterotrimer, at a 1:5 receptor-to-G protein molar ratio. Afterwards, the fluorescence experiments were performed on a Horiba Fluoromax-4 TCSP spectrofluorimeter. For each scan, the excitation wavelength (λexc) was set at 380 nm and emission was collected between 440 nm and 520 nm.
The bimane assay is used on GPCRs to detect conformational changes associated with receptor activation. This assay functions through the labelling of a cysteine, which is one of the least frequently occurring amino acids in proteins. Additionally, the majority of the extracellular cysteines form disulfide bonds, which, together with the transmembrane cysteines, are inert to thiol-reactive reagents. Additionally, some of the intracellular cysteines in the C-terminal tail may carry post-translational modifications which reduces the number of reactive cysteines in the receptor (Tian et al. 2017. Chem. Rev. 117:186-245). For GHSR, the remaining reactive cysteine residues C146 (ICL2) and C304 (extracellular end of TM7) were replaced by serines (cysmin mutant, i.e. mutant with minimal cysteines), to allow the monobromobimane (MB) fluorescent probe to be specifically attached to Cys255 in the lower part of TM6 (FIG. 5a) (Damian et al. 2021). In this assay, bimane is chosen because of its small size and sensitivity to the polarity of its environment (Yao et al. 2006. Nat Chem. Biol. 2:417-422). Binding of a ligand to the receptor, causes a conformational change and outward movement of TM6 that places bimane in a more solvent-exposed position, which alters its maximum emission wavelength. […]

HEK293 1C8 cells = assay: MTT cytotoxicity assay; type: cell-based, human; conditions: varying concentrations up to 40 μM, 3 h 45 min
Experimental: Cells were washed two times with PBS and incubated with 3-(4,5-dimethylthiazol-2-yl)-2,5-diphenyltetrazolium bromide (MTT) during 3 h, at 37° C. Afterwards, cells were washed once with PBS and then incubated for 10 min with DMSO. Plates were analysed with a Tecan Spark 10 M microplate reader.
An MTT assay was used to assess the cytotoxicity of the non-fluorescent Gq/11 peptidomimetics of Example 5. An MTT assay is a colorimetric test that evaluates the cell metabolic activity and reflects the cell viability.

| Compound | solubility in aqueous buffer [1] | conformational change in the receptor [2] | cytotoxicity / viability (HEK293 1C8 cells) |
| --- | --- | --- | --- |
| Ac-FNDCKDIILQMNLREYNLV-OH [SBL-GQ-07] | not soluble | not able to induce a conformational change |  |
| CC[C@H](C)[C@H](NC(=O)[C@@H]1CCCCn2cc(nn2)C[C@H](NC(=O)[C@H](C)NC(=O)[C@H](Cc2ccccc2)NC(=O)[C@H](CCCNC(=N)N)NC(=O)[C@H](CCCNC(=N)N)NC(=O)[C@H](CCCNC(=N)N)NC(=O)[C@@H](N)CCCNC(=N)N)C(=O)N[C@@H](C(C)C)C(=O)N[C@@H](CCCCN)C(=O)N[C@@H](CC(=O)O)C(=O)N1)C(=O)N[C@@H](CC(C)C)C(=O)N[C@@H](CCC(N)=O)C(=O)N[C@@H](CC(C)C)C(=O)N[C@@H](CC(N)=O)C(=O)N[C@@H](CC(C)C)C(=O)N[C@@H](CCCCN)C(=O)N[C@@H](CCC(=O)O)C(=O)N[C@@H](Cc1ccc(O)cc1)C(=O)N[C@@H](CC(N)=O)C(=O)N[C@@H](CC(C)C)C(=O)N[C@H](C(=O)O)C(C)C [SBL-GQ-14] (H-RRRRFA[Pra]VKD[Lys(N3)]ILQLNLKEYNLV-OH; triazole 7-11) |  |  | only a slight decrease in viability |
| CC[C@H](C)[C@H](NC(=O)[C@H](CC(=O)O)NC(=O)[C@H](CCCCN)NC(=O)[C@H](CS)NC(=O)[C@H](CC(=O)O)NC(=O)[C@H](CC(N)=O)NC(=O)[C@H](Cc1ccccc1)NC(C)=O)C(=O)N[C@H](C(=O)N[C@@H](CC(C)C)C(=O)N[C@@H](CCC(N)=O)C(=O)N[C@@H](CCSC)C(=O)N[C@@H](CC(N)=O)C(=O)N[C@@H](CC(C)C)C(=O)N[C@@H](CCCNC(=N)N)C(=O)N[C@@H](CCC(=O)O)C(=O)N[C@@H](Cc1ccc(O)cc1)C(=O)N[C@@H](CC(N)=O)C(=O)N[C@@H](CC1CCCCC1)C(=O)N[C@H](C(=O)O)C(C)C)[C@@H](C)CC [SBL-GQ-09] (Ac-FNDCKDIILQMNLREYN[Cha]V-OH) | not soluble | not able to induce a conformational change |  |
